Experimental data: DBAASP
Values after ≈ are worked out from the molar mass of the structure shown. Values belong to the compound of their own block, whether it stands above or below them.

Legend:
Test in all cases: ≥ marks a high value that may be exact or a test limit, other limits are often not marked, values filed in µg/mL are converted to µM
[1] = system: Staphylococcus aureus NCTC 8325
[2] = system: Candida albicans ATCC 90028
[3] = system: Escherichia coli ATCC 25922
[4] = system: Escherichia coli DH5alpha
Bacillus subtilis 168 = system: Bacillus subtilis 168
[5] = system: Escherichia coli KCTC 1682
[6] = system: Salmonella typhimurium KCTC 1926
[7] = system: Bacillus subtilis KCTC 3068
[8] = system: Staphylococcus aureus KCTC 1621
[9] = system: Pseudomonas aeruginosa KCTC 1637
[10] = system: Staphylococcus epidermidis KCTC 1917
[11] = system: Staphylococcus aureus ATCC 29213
[12] = system: Staphylococcus epidermidis ATCC 12228
Escherichia coli UB1005 = system: Escherichia coli UB1005
[13] = system: Staphylococcus aureus ATCC 25923
[14] = system: Salmonella enterica subsp. enterica serovar Typhimurium C77-31
Pseudomonas aeruginosa = system: Pseudomonas aeruginosa
Escherichia coli B = system: Escherichia coli B
Staphylococcus aureus = system: Staphylococcus aureus
Acinetobacter baumannii = system: Acinetobacter baumannii
Escherichia coli = system: Escherichia coli

MIC [4]: 6 µM (≈ 9.81 µg/mL) | MIC (Bacillus subtilis 168): 2 µM (≈ 3.27 µg/mL)
SMILES: CC(C)C[C@H](NC(=O)[C@H](CCCCN)NC(=O)[C@H](CCCCN)NC(=O)[C@H](CC(C)C)NC(=O)[C@H](CC(C)C)NC(=O)[C@H](CCCCN)NC(=O)[C@H](CCCCN)NC(=O)[C@H](CC(C)C)NC(=O)[C@H](CC(C)C)NC(=O)[C@H](CCCCN)NC(=O)[C@H](CCCCN)NC(=O)[C@H](CC(C)C)NC(=O)[C@H](CC(C)C)NC(=O)CN)C(N)=O [GLLKKLLKKLLKKL]

MIC [11]: > 128 µM | MIC [12]: > 128 µM | MIC (Escherichia coli UB1005): ≥ 64 µM | MIC [13]: > 128 µM | MIC [3]: > 128 µM | MIC [14]: ≥ 128 µM
SMILES: CC(C)C[C@H](NC(=O)[C@H](CCCN=C(N)N)NC(=O)[C@H](CCCCN)NC(=O)[C@H](CCCN=C(N)N)NC(=O)[C@@H](NC(=O)[C@H](CCCCN)NC(=O)[C@H](CCCCN)NC(=O)[C@H](CCCN=C(N)N)NC(=O)[C@H](CC(C)C)NC(=O)[C@H](CCCN=C(N)N)NC(=O)[C@@H](N)CCCN=C(N)N)[C@@H](C)O)C(=O)N[C@@H](CCCCN)C(N)=O [RRLRKKTRKRLK]

MIC (Pseudomonas aeruginosa): 26.1 µM (≈ 47.9 µg/mL) | MIC (Escherichia coli B): 0.7 µM (≈ 1.29 µg/mL) | MIC (Staphylococcus aureus): 9.6 µM (≈ 17.6 µg/mL) | MIC (Bacillus subtilis 168): 0.7 µM (≈ 1.29 µg/mL)
SMILES: CC[C@H](C)[C@H](NC(=O)[C@H](CCCCN)NC(=O)[C@H](CCCCN)NC(=O)[C@H](Cc1c[nH]c2ccccc12)NC(=O)[C@H](CC(N)=O)NC(=O)[C@@H](N)C(C)C)C(=O)N[C@@H](CC(C)C)C(=O)N[C@@H](CCCCN)C(=O)N[C@@H](CCCCN)C(=O)N[C@H](C(=O)N[C@H](C(=O)N[C@@H](CCCCN)C(=O)N[C@H](C(=O)N[C@H](C(=O)N[C@@H](CCCCN)C(N)=O)C(C)C)C(C)C)[C@@H](C)CC)[C@@H](C)CC [VNWKKILKKIIKVVK]

MIC [11]: 16 µM (≈ 24.4 µg/mL) | MIC [12]: 32 µM (≈ 48.7 µg/mL) | MIC (Escherichia coli UB1005): 4 µM (≈ 6.09 µg/mL) | MIC [13]: 64 µM (≈ 97.5 µg/mL) | MIC [3]: 4 µM (≈ 6.09 µg/mL) | MIC [14]: 16 µM (≈ 24.4 µg/mL)
SMILES: CC(C)C[C@H](NC(=O)[C@H](CCCN=C(N)N)NC(=O)[C@@H](NC(=O)[C@H](CCCN=C(N)N)NC(=O)[C@@H](NC(=O)[C@H](CCCCN)NC(=O)[C@@H](NC(=O)[C@H](CCCN=C(N)N)NC(=O)[C@H](CC(C)C)NC(=O)[C@H](CCCN=C(N)N)NC(=O)[C@@H](N)C(C)C)C(C)C)[C@@H](C)O)C(C)C)C(=O)N[C@@H](CCCCN)C(N)=O [VRLRVKTRVRLK]

MIC (Pseudomonas aeruginosa): 4 µM (≈ 6.57 µg/mL) | MIC (Acinetobacter baumannii): 1.41 µM (≈ 2.32 µg/mL) | MIC [11]: 1 µM (≈ 1.64 µg/mL) | MIC [12]: 2 µM (≈ 3.28 µg/mL) | MIC (Escherichia coli): 1 µM (≈ 1.64 µg/mL) | MIC (Escherichia coli UB1005): 2 µM (≈ 3.28 µg/mL) | MIC [13]: 2 µM (≈ 3.28 µg/mL) | MIC (Staphylococcus aureus): 2 µM (≈ 3.28 µg/mL) | MIC [3]: 2 µM (≈ 3.28 µg/mL) | MIC [14]: 2 µM (≈ 3.28 µg/mL)
SMILES: CC(C)[C@H](NC(=O)[C@H](CCCCN)NC(=O)[C@H](Cc1c[nH]c2ccccc12)NC(=O)[C@H](CCCCN)NC(=O)[C@@H](NC(=O)[C@H](CCCCN)NC(=O)[C@H](Cc1c[nH]c2ccccc12)NC(=O)[C@H](CCCCN)NC(=O)[C@@H](NC(=O)[C@H](CCCCN)NC(=O)[C@@H](N)Cc1c[nH]c2ccccc12)C(C)C)C(C)C)C(=O)N[C@@H](CCCCN)C(N)=O [WKVKWKVKWKVK]

MIC (Pseudomonas aeruginosa): > 64 µM | MIC (Acinetobacter baumannii): ≥ 32 µM | MIC [11]: 4 µM (≈ 7.26 µg/mL) | MIC [12]: 8 µM (≈ 14.5 µg/mL) | MIC (Escherichia coli): 2 µM (≈ 3.63 µg/mL) | MIC (Escherichia coli UB1005): 4 µM (≈ 7.26 µg/mL) | MIC [13]: 8 µM (≈ 14.5 µg/mL) | MIC (Staphylococcus aureus): 4 µM (≈ 7.26 µg/mL) | MIC [3]: 4 µM (≈ 7.26 µg/mL) | MIC [14]: 4 µM (≈ 7.26 µg/mL)
SMILES: C[C@@H](O)[C@H](NC(=O)[C@H](CCCN=C(N)N)NC(=O)[C@H](Cc1c[nH]c2ccccc12)NC(=O)[C@H](CCCN=C(N)N)NC(=O)[C@@H](NC(=O)[C@H](CCCN=C(N)N)NC(=O)[C@H](Cc1c[nH]c2ccccc12)NC(=O)[C@H](CCCN=C(N)N)NC(=O)[C@@H](NC(=O)[C@H](CCCN=C(N)N)NC(=O)[C@@H](N)Cc1c[nH]c2ccccc12)[C@@H](C)O)[C@@H](C)O)C(=O)N[C@@H](CCCN=C(N)N)C(N)=O [WRTRWRTRWRTR]

The remaining lines, values behind:

SMILES: CC(C)C[C@H](NC(=O)[C@@H](NC(=O)[C@H](CCCCN)NC(=O)[C@H](CO)NC(=O)[C@H](CC(C)C)NC(=O)[C@H](CC(C)C)NC(=O)[C@@H](NC(=O)[C@H](C)NC(=O)[C@H](CC(C)C)NC(=O)[C@H](Cc1ccccc1)NC(=O)[C@@H]1CCCN1C(=O)[C@H](CC(C)C)NC(=O)[C@@H](N)Cc1ccccc1)[C@@H](C)O)C(C)C)C(N)=O [FLPFLATLLSKVL]
MIC [1]: ≥ 100 µM

SMILES: CC[C@H](C)[C@H](NC(=O)CNC(=O)[C@H](C)NC(=O)[C@@H](NC(=O)[C@@H](NC(=O)[C@@H]1CCCN1C(=O)[C@H](CC(C)C)NC(=O)[C@@H](N)Cc1ccccc1)[C@@H](C)CC)[C@@H](C)CC)C(=O)N[C@@H](C)C(=O)N[C@@H](C)C(=O)N[C@@H](CCCCN)C(=O)N[C@H](C(=O)N[C@@H](Cc1ccccc1)C(=O)N1CCC[C@H]1C(=O)N[C@@H](CCCCN)C(=O)N[C@H](C(=O)N[C@@H](Cc1ccccc1)C(=O)N[C@H]1CSSC[C@@H](C(=O)O)NC(=O)[C@H](CCCCN)NC(=O)[C@H](CCCCN)NC(=O)[C@H](CO)NC(=O)[C@H]([C@@H](C)CC)NC(=O)[C@H](C)NC1=O)[C@@H](C)CC)C(C)C [FLPIIAGIAAKVFPKIFCAISKKC]
MIC [2]: 7 µM (≈ 18 µg/mL) | MIC [3]: 14 µM (≈ 36.1 µg/mL) | MIC [1]: 5 µM (≈ 12.9 µg/mL)

SMILES: CC[C@H](C)[C@@H]1NC(=O)[C@@H](NC(=O)[C@H](CCCCN)NC(=O)[C@H](CC(C)C)NC(=O)CNC(=O)[C@H](CCC(N)=O)NC(=O)[C@H](CC(C)C)NC(=O)[C@H](CC(C)C)NC(=O)[C@H](CCCCN)NC(=O)CNC(=O)[C@H](C)NC(=O)[C@H](CC(C)C)NC(=O)CNC(=O)[C@H](CCCCN)NC(=O)[C@H](CC(C)C)NC(=O)[C@@H](NC(=O)[C@H](CC(=O)O)NC(=O)[C@H](CC(C)C)NC(=O)[C@H](Cc2ccccc2)NC(=O)[C@H](CC(C)C)NC(=O)CN)[C@@H](C)O)CSSC[C@@H](C(=O)N[C@@H](CCCCN)C(=O)N2CCC[C@H]2C(=O)O)NC(=O)CNC(=O)[C@H](C)NC(=O)[C@H](CCCCN)NC1=O [GLFLDTLKGLAGKLLQGLKCIKAGCKP]
MIC [2]: ≥ 46 µM | MIC [3]: 2 µM (≈ 5.57 µg/mL) | MIC [1]: ≥ 40 µM

SMILES: CC[C@H](C)[C@H](NC(=O)CNC(=O)[C@H](CCC(N)=O)NC(=O)[C@H](Cc1ccccc1)NC(=O)[C@@H](NC(=O)[C@H](CCCCN)NC(=O)[C@H](CCCCN)NC(=O)[C@H](CC(C)C)NC(=O)[C@H](C)NC(=O)[C@H](CC(N)=O)NC(=O)[C@H](CC(C)C)NC(=O)CN)C(C)C)C(=O)N[C@@H](Cc1cnc[nH]1)C(=O)N[C@@H](CCC(=O)O)C(=O)N[C@@H](C)C(=O)N[C@H](C(=O)N[C@@H](CCCCN)C(=O)N[C@@H](CC(C)C)C(=O)N[C@H](C(=O)N[C@@H](CC(N)=O)C(=O)N[C@@H](CCCCN)C(=O)N[C@@H](Cc1cnc[nH]1)C(=O)N[C@H](C(=O)N[C@@H](CCC(N)=O)C(=O)O)C(C)C)[C@@H](C)CC)[C@@H](C)CC [GLNALKKVFQGIHEAIKLINKHVQ]
MIC [3]: 20 µM (≈ 54 µg/mL) | MIC [1]: ≥ 80 µM

SMILES: CC(C)C[C@H](NC(=O)[C@H](Cc1ccc(O)cc1)NC(=O)[C@H](Cc1cnc[nH]1)NC(=O)[C@@H](NC(=O)[C@H](CC(C)C)NC(=O)[C@H](C)NC(=O)[C@H](C)NC(=O)[C@H](CCCCN)NC(=O)CNC(=O)[C@@H](NC(=O)[C@H](Cc1cnc[nH]1)NC(=O)[C@H](CCCCN)NC(=O)[C@H](C)NC(=O)[C@@H](NC(=O)[C@H](Cc1cnc[nH]1)NC(=O)[C@H](C)NC(=O)[C@H](C)NC(=O)[C@H](CCCCN)NC(=O)[C@H](CCCCN)NC(=O)[C@H](Cc1ccccc1)NC(=O)[C@H](Cc1ccccc1)NC(=O)[C@H](CO)NC(=O)CNC(=O)[C@H](Cc1c[nH]c2ccccc12)NC(=O)CN)C(C)C)C(C)C)[C@@H](C)O)C(=O)O [GWGSFFKKAAHVAKHVGKAALTHYL]
MIC [5]: 4 µM (≈ 10.9 µg/mL) | MIC [6]: 2 µM (≈ 5.45 µg/mL) | MIC [7]: 4 µM (≈ 10.9 µg/mL) | MIC [8]: 1 µM (≈ 2.73 µg/mL) | MIC [9]: 2 µM (≈ 5.45 µg/mL) | MIC [10]: 1 µM (≈ 2.73 µg/mL)

SMILES: CC[C@H](C)[C@H](NC(=O)[C@H](CCCCN)NC(=O)CNC(=O)[C@H](CC(C)C)NC(=O)[C@@H](NC(=O)[C@H](CCCCN)NC(=O)[C@H](CCCCN)NC(=O)[C@H](Cc1c[nH]c2ccccc12)NC(=O)[C@H](CC(N)=O)NC(=O)[C@@H](N)C(C)C)[C@@H](C)CC)C(N)=O [VNWKKILGKI]
MIC (Pseudomonas aeruginosa): 75 µM (≈ 89.8 µg/mL) | MIC (Escherichia coli B): 23.3 µM (≈ 27.9 µg/mL) | MIC (Staphylococcus aureus): > 100 µM | MIC (Bacillus subtilis 168): 4.7 µM (≈ 5.63 µg/mL)
